The record followed here is ChEMBL document CHEMBL1201862, “PubChem BioAssay data set” (2004).

Test systems include 786-0; COLO 205; EKVX; Hs-578T; KM12; LOX IMVI; MCF7; MDA-N; MOLT-4; Malme-3M; NCI-H522; OVCAR-3; SK-OV-3; SN12C; TK-10; UACC-257; UO-31; RXF 393; SF-295.
Holding throughout (assay): NCI-60 cell line screen, 48 h

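Step 1: Grow cells in 96-well plates. Step 2: Expose to compound for 48 hours at 5 concentrations. Step 3: Interpolate endpoints linearly; if unreached, use highest concentration. GI50: concentration for 50% inhibition of growth.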 Activity calls are given as the source filed them. Cut-off read from the data, not from the text of the source: active = GI50 up to about 1.1 µM and inactive = higher.

As to `Cc1nn(CN2CCN(C)CC2)c(=S)n1/N=C/c1ccc(-c2ccc(Cl)cc2Cl)o1`, the GI50 in the test on 786-0 was 50.1 µM (inactive); in the test with COLO 205, > 100 µM (inactive); with EKVX it was 14.8 µM (inactive); with Hs-578T, > 100 µM (inactive); in the test with KM12, > 100 µM (inactive); in the test with LOX IMVI it was 60.7 µM (inactive). Besides, the GI50 with MCF7 is 33.4 µM (inactive); with MDA-N, 50.5 µM (inactive); in the test with MOLT-4, 30.5 µM (inactive); with Malme-3M it was > 100 µM (inactive); with NCI-H522, > 100 µM (inactive); in the test on OVCAR-3, 64 µM (inactive). In addition, the GI50 is > 100 µM (inactive) in the test on SK-OV-3; > 100 µM (inactive) with SN12C; 43.9 µM (inactive) with TK-10; 66.7 µM (inactive) with UACC-257; 92.9 µM (inactive) in the test on UO-31.
For `COc1ccc(/N=N/C(=O)NC(CC(C)C)C(=O)NC(CC(C)C)C(=O)O)cc1` (centres undefined), the GI50 in the test with 786-0 was > 100 µM (inactive); in the test on COLO 205 it was 21.5 µM (inactive); with EKVX, > 100 µM (inactive); in the test on Hs-578T it was > 100 µM (inactive); in the test on KM12 it was 43.8 µM (inactive); in the test with LOX IMVI, > 100 µM (inactive). The GI50 in the test with MCF7 is > 100 µM (inactive); with MDA-N it was 35.3 µM (inactive); in the test on MOLT-4 it was 41.6 µM (inactive); with Malme-3M, 23.7 µM (inactive); in the test with NCI-H522 it was 51.9 µM (inactive); in the test with OVCAR-3 it was > 100 µM (inactive). For the same compound, the GI50 in the test on RXF 393 is > 100 µM (inactive); in the test on SF-295 it was 34.8 µM (inactive); in the test on SN12C, > 100 µM (inactive); with TK-10 it was > 100 µM (inactive); in the test on UACC-257, 7.98 µM (inactive); with UO-31 it was 24.8 µM (inactive).
Regarding `CC(=O)O[C@H]1C(=O)[C@@]2(C)[C@H]([C@H](OC(=O)c3ccccc3)[C@]3(O)C[C@H](OC(=O)[C@H](O)[C@@H](NC(=O)c4ccc(N)cc4)c4ccccc4)C(C)=C1C3(C)C)[C@]1(OC(C)=O)CO[C@@H]1C[C@@H]2O`, the GI50 was 0.0369 µM (active) in the test on 786-0; < 0.005 µM (active) in the test with COLO 205; 0.959 µM (active) with EKVX; < 0.005 µM (active) in the test with Hs-578T; < 0.005 µM (active) in the test with KM12; < 0.005 µM (active) in the test with LOX IMVI. The GI50 in the test with MCF7 is < 0.005 µM (active); with MDA-N, < 0.005 µM (active); in the test with MOLT-4 it was 0.0129 µM (active); with NCI-H522, < 0.005 µM (active); in the test with OVCAR-3, < 0.005 µM (active); in the test on RXF 393, 0.0887 µM (active). Further, the GI50 was 0.135 µM (active) in the test on SF-295, 0.0134 µM (active) with SK-OV-3, 0.173 µM (active) with TK-10 and 8.32 µM (inactive) in the test with UO-31.
`Cc1nn(C(=O)Cc2ccccc2)c2c1C(c1ccccc1)SC(=N)N2` (centres undefined): the GI50 in the test on 786-0, in the test on COLO 205, in the test on EKVX, in the test with Hs-578T, in the test with KM12 and in the test with LOX IMVI was > 100 µM (inactive) each time. Moreover, the GI50 in the test with MCF7, in the test on MDA-N, in the test on MOLT-4, with Malme-3M, with NCI-H522 and in the test on SF-295 was > 100 µM (inactive) in each case. Also, the GI50 with SK-OV-3, with SN12C, in the test on TK-10, with UACC-257 and in the test on UO-31 was > 100 µM (inactive) each time.
Regarding `COc1ccc2[nH]c3c(c2c1)COc1ccccc1C3=O`, the GI50 is > 100 µM (inactive) in the test with 786-0; > 100 µM (inactive) in the test with COLO 205; > 100 µM (inactive) with EKVX; 69 µM (inactive) in the test on Hs-578T; > 100 µM (inactive) with KM12; > 100 µM (inactive) in the test with LOX IMVI. The GI50 in the test on MCF7, in the test on MDA-N, with MOLT-4, with Malme-3M, in the test with NCI-H522 and in the test with OVCAR-3 was > 100 µM (inactive) each time. The GI50 in the test with SF-295, in the test on SK-OV-3, in the test with SN12C, with TK-10, in the test on UACC-257 and in the test on UO-31 was > 100 µM (inactive) throughout.
Consider `CN(CCSCCN(C)C(=O)OC(C)(C)C)C(=O)OC(C)(C)C`, for which the GI50 in the test on 786-0, in the test on COLO 205, in the test on EKVX, with Hs-578T, with KM12 and in the test with LOX IMVI was > 100 µM (inactive) throughout. The GI50 with MCF7, in the test with MDA-N, in the test with MOLT-4, in the test on Malme-3M, in the test with NCI-H522 and in the test with OVCAR-3 was > 100 µM (inactive) each time. The GI50 in the test with SF-295, with SK-OV-3, in the test on SN12C, in the test on TK-10, in the test with UACC-257 and in the test with UO-31 was > 100 µM (inactive) throughout.
`C=C1C[C@@H]2O[C@H]3[C@H]4[C@@H](C[C@@H](C)[C@@H](OC(C)=O)[C@H]42)[C@@H](C)CO[C@@]3(C)[C@H](OC(=O)CCCCCCC)C[C@H]1O`: the GI50 was 15.5 µM (inactive) in the test on 786-0; 16.4 µM (inactive) with COLO 205; 13.9 µM (inactive) in the test with EKVX; 14.4 µM (inactive) in the test on Hs-578T; 16.7 µM (inactive) with KM12; 13.2 µM (inactive) in the test on LOX IMVI. Moreover, the GI50 in the test on MCF7 was 21.4 µM (inactive); in the test with MDA-N, 16.7 µM (inactive); in the test with MOLT-4, 22.9 µM (inactive); in the test on NCI-H522 it was 16.4 µM (inactive); in the test with OVCAR-3 it was 22.5 µM (inactive); in the test with RXF 393, 18.9 µM (inactive). In addition, the GI50 is 21.7 µM (inactive) with SF-295; 17.3 µM (inactive) in the test with SN12C; 17.2 µM (inactive) in the test on TK-10; 16.7 µM (inactive) with UACC-257; 15.8 µM (inactive) with UO-31.
Consider `[N-]=[N+]=Nc1cc(=O)[nH]c2ccccc12`, for which the GI50 with 786-0 is > 100 µM (inactive); with COLO 205, > 100 µM (inactive); in the test on EKVX, 4.98 µM (inactive); in the test on Hs-578T, 44.3 µM (inactive); with KM12, > 100 µM (inactive); in the test with MCF7, 52 µM (inactive). The GI50 is > 100 µM (inactive) in the test on MDA-N; 92.5 µM (inactive) in the test on MOLT-4; 94.6 µM (inactive) with Malme-3M; > 100 µM (inactive) in the test on NCI-H522; 65.2 µM (inactive) in the test with OVCAR-3; > 100 µM (inactive) in the test on RXF 393. Also, the GI50 in the test on SF-295 is > 100 µM (inactive); in the test on SK-OV-3, 85.3 µM (inactive); with SN12C, > 100 µM (inactive); with TK-10, 53 µM (inactive); with UACC-257, > 100 µM (inactive); in the test on UO-31 it was 31.4 µM (inactive).
In the case of `Cc1cc(C)c2c(c1)C(=O)/C(=C/c1ccccc1C(=O)O)C2`, the GI50 is > 100 µM (inactive) with 786-0; 29.1 µM (inactive) in the test on EKVX; > 100 µM (inactive) with Hs-578T; 94.6 µM (inactive) with KM12; 71.9 µM (inactive) in the test with LOX IMVI; 88.7 µM (inactive) in the test on MCF7. For the same compound, the GI50 is 67.5 µM (inactive) in the test with MDA-N; 34.4 µM (inactive) in the test on MOLT-4; > 100 µM (inactive) in the test on Malme-3M; 20.6 µM (inactive) in the test on NCI-H522; 22.5 µM (inactive) in the test on OVCAR-3; 38.7 µM (inactive) with RXF 393. The GI50 with SF-295 was 52.2 µM (inactive); with SN12C it was 53.8 µM (inactive); with TK-10, > 100 µM (inactive); in the test with UACC-257 it was > 100 µM (inactive); with UO-31, > 100 µM (inactive).
With `CCOC(=O)c1c[nH]c2c(Sc3ccccc3)nccc2c1=O`, the GI50 in the test on 786-0 was > 100 µM (inactive); with COLO 205, > 100 µM (inactive); in the test on EKVX, > 100 µM (inactive); in the test on Hs-578T, > 100 µM (inactive); in the test on KM12, 44.6 µM (inactive); with LOX IMVI, 31 µM (inactive). Besides, the GI50 in the test with MCF7 was 71.4 µM (inactive); in the test on MDA-N, > 100 µM (inactive); in the test with MOLT-4, 17.8 µM (inactive); with NCI-H522, 19.7 µM (inactive); with OVCAR-3 it was > 100 µM (inactive); in the test with SF-295 it was > 100 µM (inactive). The GI50 in the test with SK-OV-3 was > 100 µM (inactive); in the test on SN12C, > 100 µM (inactive); in the test on TK-10, > 100 µM (inactive); in the test on UACC-257, > 100 µM (inactive); with UO-31, 13.2 µM (inactive).
With `Cc1cc(O)c2c(c1O)C(=O)c1cccc(O)c1C2=O` [ISLANDICIN], the GI50 in the test on 786-0, with EKVX, in the test on Hs-578T, with KM12, with LOX IMVI and in the test on MCF7 was > 100 µM (inactive) each time. Further, the GI50 in the test on MDA-N is > 100 µM (inactive); with NCI-H522, 47.8 µM (inactive); in the test on OVCAR-3, > 100 µM (inactive); with RXF 393, > 100 µM (inactive); with SF-295, > 100 µM (inactive); in the test on SK-OV-3, > 100 µM (inactive). The GI50 with SN12C, in the test on TK-10, with UACC-257 and with UO-31 was > 100 µM (inactive) throughout.
